Measured values published in PMC9506480, “Synthesis and Evaluation of Antiproliferative Activity, Topoisomerase IIα Inhibition, DNA Binding and Non-Clinical Toxicity of New Acridine–Thiosemicarbazone Derivatives” (Pharmaceuticals, 2022).

Tested on: CT DNA–EtBr
Test: Fluorescence competition with EtBr
Format: binding, calf
Conditions: for Ksv (10^3) (M^−1): [EtBr] = 20 μmol L^−1, [DNA] = 100 μmol L^−1; for Quenching (%): [EtBr] = 20 μmol L^−1, [DNA] = 100 μmol L^−1, [compound] = 0–100 μmol L^−1
Excerpt: EtBr is a weak fluorophore in an aqueous solvent, which has its fluorescence enhanced when it binds to DNA by the intercalative mode. The study of fluorescence quenching with EtBr is commonly used to assess the ability of compounds to interact with DNA by interfering with the fluorescence of the EtBr–DNA interaction (ESI, Figures S58 and S59). The EtBr–DNA complex in the presence and absence of CL-07 is shown in Figure 6, and the comparison of the quenching extent between studied compounds in terms of F/F0 vs. [compound] is illustrated in Figure 7.
The fluorescence titration results were analyzed using the Stern–Volmer equation [101], and the Ksv values of CT DNA–EtBr in the presence of the compounds calculated the slope of the graphs. The fluorescence spectra of the EtBr or CT DNA–EtBr compounds were obtained by excitation at 526 nm and scanning the emission from 530 to 650 nm. Solutions containing CT DNA–EtBr (20 μM:100 μM) were analyzed in the presence of several derivative concentrations (10, 20, 40, 60, 80 and 100 μM) in Tris-HCl buffer (0.1 M, pH 7.4) (ESI, Figures S58 and S59):F0/F = 1 + Ksv[Q] F0 and F represent the steady-state fluorescence intensities of CT DNA–EtBr in the absence and presence of the compounds, respectively. [Q] refers to the concentration of derivatives as a quencher. Ksv indicates the Stern–Volmer quenching constant.

For `COc1ccc2nc3cc(Cl)ccc3c(NC(=S)N/N=C/c3cccc(O)c3)c2c1` [DL-08, (E)-N-(6-chloro-2-methoxyacridin-9-yl)-2-(3-hydroxybenzylidene)hydrazine-1-carbothioamide], the “Ksv (10^3) (M^−1)” value (Stern–Volmer constant) was 2.5 10^3 M^−1 and the “Quenching (%)” value was 20.83%.

`Oc1ccc(/C=N/NC(=S)Nc2c3ccccc3nc3ccccc23)cc1` [CL-07, (E)-N-(acridin-9-yl)-2-(4-hydroxybenzylidene)hydrazine-1-carbothioamide] was tested, and the “Ksv (10^3) (M^−1)” value (Stern–Volmer constant) was 2.6 10^3 M^−1, the Ksv (Stern–Volmer constant, abstract value) was 2600 M⁻¹ and the “Quenching (%)” value was 21.71%.

`COc1ccc2nc3cc(Cl)ccc3c(NC(=S)N/N=C/c3ccccc3)c2c1` [DL-01, (E)-2-benzylidene-N-(6-chloro-2-methoxyacridin-9-yl)hydrazine-1-carbothioamide] was tested, and the “Ksv (10^3) (M^−1)” value (Stern–Volmer constant) was 1.8 10^3 M^−1 and the “Quenching (%)” value was 15.61%.
